Among the data in US20250145564A1, “SULFONYLUREA COMPOUND, PREPARATION METHOD THEREFOR, AND APPLICATION THEREOF” (SHANGHAI INSTITUTE OF MATERIA MEDICA, CHINESE ACADEMY OF …, priority 2021, published 2025) are IC50 values, retold here.

This experiment deals with T1, sEH (human recombinant) (Homo sapiens, UniProt P34913).
T1 sequence (P34913 1-555): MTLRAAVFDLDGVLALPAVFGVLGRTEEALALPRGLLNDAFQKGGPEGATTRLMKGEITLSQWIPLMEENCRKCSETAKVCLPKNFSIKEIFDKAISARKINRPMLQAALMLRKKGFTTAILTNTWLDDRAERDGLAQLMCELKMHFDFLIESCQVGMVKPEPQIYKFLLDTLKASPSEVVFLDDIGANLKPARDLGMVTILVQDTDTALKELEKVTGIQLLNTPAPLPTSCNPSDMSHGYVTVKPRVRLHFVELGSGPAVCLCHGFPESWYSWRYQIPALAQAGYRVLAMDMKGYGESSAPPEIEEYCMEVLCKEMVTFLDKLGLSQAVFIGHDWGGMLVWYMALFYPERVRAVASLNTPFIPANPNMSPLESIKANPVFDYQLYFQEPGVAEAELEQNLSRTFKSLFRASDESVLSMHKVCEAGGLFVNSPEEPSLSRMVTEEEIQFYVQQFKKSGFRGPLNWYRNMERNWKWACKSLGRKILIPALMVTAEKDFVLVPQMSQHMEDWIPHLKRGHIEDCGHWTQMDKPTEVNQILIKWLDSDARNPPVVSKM
The experiment can be described thus: sEH inhibition assay (fluorescence).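 Note: enzyme preincubated with compound 30 min at 25 °C, then substrate added and fluorescence read after 15 min at 25 °C, 320 nm and 460 nm, versus DMSO negative control.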
Method: sEH Assay Buffer was purchased from Cayman Chemical; sEH (human recombinant) was purchased from Cayman Chemical; sEH substrate was purchased from Cayman Chemical. The working solution of 20% DMSO for the compounds was prepared by mixing dimethyl sulfoxide with water in a volume ratio of 1:4, and shaking to mix well.
sEH Assay Buffer (10×), SEH (human recombinant) and sEH substrate were thawed on ice.
The sEH Assay Buffer (lux) was prepared into a 1×sEH Assay Buffer with deionized water. 12 μL of sEH was added with 588 µL of 1× Assay Buffer to be diluted 50 times to obtain a sEH working solution. 180 µL of 1× Assay Buffer was added into the corresponding wells; the sEH working solution was added to the corresponding wells at 5 μL/well; the working solution of 20% DMSO for the compounds was added into the corresponding wells at 5 μL/well, and blank wells and negative control wells added with an equal amount of DMSO were set. After centrifuged at 1000 rpm for 1 minute, the wells were incubated at 25° C. for 30 minutes. After incubation, the substrate was added into the 96-wells plate at 5 μL/well and the plate was centrifuged at 1000 rpm for 1 minute. After incubation at 25° C. for 15 minutes, fluorescence values were read at emission wavelengths of 320 nm and 460 nm.
Broadly, the IC50 is the midpoint of a concentration-inhibition curve. As for `Cc1ccc(S(=O)(=O)N(C)C(=O)NN2CCCCCC2)cc1` [Compound I-33], the IC50 lay in the range of 1 to 10 µM.
Then `CCC1=C(C)CN(C(=O)NCCc2ccc(S(=O)(=O)N(C(=O)N[C@H]3CC[C@H](C)CC3)C(C)C)cc2)C1=O` [Compound I-38], with 1 to 10 µM; and `CCC1=C(C)CN(C(=O)NCCc2ccc(S(=O)(=O)NC(=O)N[C@H]3CC[C@H](COC)CC3)cc2)C1=O` [Compound I-25], with 0.2 to 1 µM.
Consider `CCC1=C(C)CN(C(=O)NCCc2ccc(S(=O)(=O)NC(=O)N[C@H]3CC[C@H](C(=O)OC(C)OC(=O)OC4CCCCC4)CC3)cc2)C1=O` (some centres unmarked) [Compound I-17], for which the IC50 fell in the range of 10 to 100 µM.
The same measure for `CCCC1=C(C)CN(C(=O)NCCc2ccc(S(=O)(=O)NC(=O)NC3CCC(C(=O)OC)CC3)cc2)C1=O` (centres unmarked) [Compound I-30]: 10 to 100 µM; for `CCC1=C(C)CN(C(=O)NCCc2ccc(S(=O)(=O)N(C)C(=O)N[C@H]3CC[C@H](CO[P@](=O)(N[C@@H](C)C(=O)OC(C)C)Oc4ccccc4)CC3)cc2)C1=O` [Compound I-22]: 10 to 100 µM.
The same measure for `CCC1=C(C)CN(C(=O)NCCc2ccc(S(=O)(=O)NC(=O)NC3CCC(C(=O)NC)CC3)cc2)C1=O` (centres unmarked) [Compound I-29]: 1 to 10 µM; for `COc1ccc(Cl)cc1C(=O)NCCc1ccc(S(=O)(=O)N(C)C(=O)NC2CCCCC2)cc1` [Compound I-3]: less than 0.2 µM; for `CCC(=O)OC[C@H]1CC[C@H](NC(=O)NS(=O)(=O)c2ccc(CCNC(=O)N3CC(C)=C(CC)C3=O)cc2)CC1` [Compound I-39]: 1 to 10 µM.
The same measure for `CCC1=C(C)CN(C(=O)NCCc2ccc(S(=O)(=O)N(C)C(=O)NC3CCC(CC)CC3)cc2)C1=O` (centres unmarked) [Compound I-34]: 1 to 10 µM.
`CCC1=C(C)CN(C(=O)NCCc2ccc(S(=O)(=O)N(C)C(=O)N[C@H]3CC[C@H](COCP(=O)(OCOC(=O)OC(C)C)OCOC(=O)OC(C)C)CC3)cc2)C1=O` [Compound I-21]: the IC50 was in the range of 10 to 100 µM.
As for `CCC1=C(C)CN(C(=O)NCCc2ccc(S(=O)(=O)N(C)C(=O)N[C@H]3CC[C@H](COC(=O)C(C)(C)C)CC3)cc2)C1=O` [Compound I-44], the IC50 was in the range of 1 to 10 µM.
For `CCC1=C(C)CN(C(=O)NCCc2ccc(S(=O)(=O)NC(=O)N[C@H]3CC[C@H](COC(=O)CN(C)C)CC3)cc2)C1=O` [Compound I-14], the IC50 lay within 10 to 100 µM.
In the case of `Cc1cc(C(=O)NCCc2ccc(S(=O)(=O)N(C)C(=O)NN3CCCCCC3)cc2)no1` [Compound I-35], the IC50 was in the range of 1 to 10 µM.
The same measure for `Cc1cnc(C(=O)NCCc2ccc(S(=O)(=O)N(C)C(=O)NC3CCCCC3)cc2)cn1` [Compound I-32]: 1 to 10 µM.
Then `CCC1=C(C)CN(C(=O)NCCc2ccc(S(=O)(=O)NC(=O)NC3CCC(C(=O)OC)CC3)cc2)C1=O` (centres unmarked) [Compound I-26], with 1 to 10 µM.
The same measure for `CCC1=C(C)CN(C(=O)NCCc2ccc(S(=O)(=O)N(C)C(=O)N[C@H]3CC[C@H](COC(C)=O)CC3)cc2)C1=O` [Compound I-24]: 1 to 10 µM; for `Cc1ccc(S(=O)(=O)N(C(=O)NN2CC3CCCC3C2)C(C)C)cc1` (centres unmarked) [Compound I-7]: 1 to 10 µM; for `COc1ccc2c(c1)C(=O)N(CCc1ccc(S(=O)(=O)N(C)C(=O)NC3CCCCC3)cc1)C(=O)C2(C)C` [Compound I-2]: less than 0.2 µM.
Turning to `CCC(=O)OC[C@H]1CC[C@H](NC(=O)N(C)S(=O)(=O)c2ccc(CCNC(=O)N3CC(C)=C(CC)C3=O)cc2)CC1` [Compound I-40], the IC50 was 1 to 10 µM.
Then `CCC1=C(C)CN(C(=O)NCCc2ccc(S(=O)(=O)NC(=O)N[C@H]3CC[C@H](COC(=O)Nc4ccc(OC(F)(F)F)cc4)CC3)cc2)C1=O` [Compound I-13], with 1 to 10 µM; and `CCC1=C(C)CN(C(=O)NCCc2ccc(S(=O)(=O)N(C)C(=O)NC3CCC(C(=O)O)CC3)cc2)C1=O` (centres unmarked) [Compound I-27], with 10 to 100 µM; and `CCC1=C(C)CN(C(=O)NCCc2ccc(S(=O)(=O)NC(=O)N[C@H]3CC[C@H](CO[P@](=O)(N[C@@H](C)C(=O)OC(C)C)Oc4ccccc4)CC3)cc2)C1=O` [Compound I-19], with 10 to 100 µM.
